Experimental data taken from ChEMBL document CHEMBL1773047, “Antiparasitic compounds from Cupania cinerea with activities against Plasmodium falciparum and Trypanosoma brucei rhodesiense” (J Nat Prod, 2011).

Key:
[1] = system: L6; assay: Cytotoxicity against rat L6 cells after 72 hrs by microplate fluorimetry; format: cell-based; conditions: L6, 72 h
[2] = system: Trypanosoma brucei rhodesiense; assay: Antiparasitic activity against Trypanosoma brucei rhodesiense STIB 900 bloodstream form after 72 hrs by microplate fluorimetry; format: functional, organism-based; conditions: STIB 900, 72 h
[3] = system: Plasmodium falciparum; assay: Antiplasmodial activity against chloroquine- and pyrimethamine-resistant Plasmodium falciparum K1 infected in human red blood cells assessed as [3H]hypoxanthine incorporation after 48 hrs by liquid scintillation counting; format: functional, organism-based

SMILES	IC50 [1]	IC50 [2]	IC50 [3]
CC(=O)O[C@@H]1[C@@H](OC(C)=O)[C@H](C)O[C@@H](O[C@H]2[C@H](OC/C=C(\C)CC/C=C(\C)CC/C=C(\C)CCC=C(C)C)O[C@H](CO)[C@@H](O)[C@@H]2O)[C@@H]1OC(C)=O	8.7 µM	15.8 µM	2.1 µM
CC(C)=CCCC(C)C1CC=C(C)C(O)C1O (configuration not stated)	> 90 µM	38.2 µM	> 20 µM
CC(C)=CCC[C@H](C)[C@@H]1C=C[C@](C)(O)[C@@H](O)C1	> 90 µM	61.3 µM	> 20 µM
CC(C)[C@@]12CC[C@]3(C)[C@H]4CC[C@@H]5[C@@]6(C)CCC(=O)C(C)(C)[C@@H]6CC[C@@]5(C)[C@]4(C)CC[C@@]13O2	> 90 µM	> 90 µM	> 10 µM
C=C1CC[C@@H]2O[C@]2(C)CC[C@@H]2[C@@H]1CC2(C)C	> 90 µM	> 90 µM	> 25 µM
C=C(C)[C@@H]1CC[C@]2(CO)CC[C@]3(C)[C@H](CC[C@@H]4[C@@]5(C)CCC(=O)C(C)(C)[C@@H]5CC[C@]43C)[C@@H]12 [BETULONE]	22.2 µM	18.9 µM	3 µM
CC(=O)OC[C@H]1O[C@@H](OC/C=C(\C)CC/C=C(\C)CC/C=C(\C)CCC=C(C)C)[C@H](O[C@@H]2O[C@@H](C)[C@H](OC(C)=O)[C@@H](OC(C)=O)[C@H]2OC(C)=O)[C@@H](O)[C@@H]1O [CUPACINOSIDE]	11.6 µM	4.6 µM	1.3 µM
CC1(C)OC(=O)CC[C@]2(C)[C@H]3CC[C@H]4[C@@](C)(CC[C@@]5(C)C(C)(C)CCC[C@]45C)O[C@]3(C)CC[C@@H]12 [CUPACINOXEPIN]	> 90 µM	71.6 µM	8.7 µM
CCCCCC(=O)Cc1cc(OC)cc(O)c1C(=O)Oc1cc(CC(=O)CCCCC)c(C(=O)OC)c(OC)c1 [GUSTASTATIN]	> 90 µM	19.4 µM	> 9 µM
COc1cc(C)c2c(=O)c3c(O)cc(OC)cc3oc2c1 [LICHEXANTHONE]	52.1 µM	> 90 µM	> 20 µM
C=C(C)[C@@H]1CC[C@]2(C)CC[C@]3(C)[C@H](CC[C@@H]4[C@@]5(C)CCC(=O)C(C)(C)[C@@H]5CC[C@]43C)[C@@H]12 [LUPENONE]	> 90 µM	> 90 µM	4.7 µM
COc1cc2ccc(=O)oc2cc1O [SCOPOLETIN]	> 90 µM	> 90 µM	> 25 µM
CC1(C)CC[C@]2(C)CC=C3[C@]4(C)CC[C@H]5C(C)(C)[C@@H](O)CC[C@]5(C)[C@H]4CC[C@@]3(C)[C@@H]2C1 [TARAXEROL]	> 90 µM	10.5 µM	8.5 µM
CC1(C)CC[C@]2(C)CC=C3[C@]4(C)CC[C@H]5C(C)(C)C(=O)CC[C@]5(C)[C@H]4CC[C@@]3(C)[C@@H]2C1 [TARAXERONE]	> 90 µM	> 90 µM	> 10 µM
